# Reference: patent publication US8853230B2, “Inhibitors of JAK” (Portola Pharmaceuticals, Inc., priority 2009, dated 2014)
# Columns and labels:
# JAK2 = target: T1, JAK2 (Homo sapiens, UniProt O60674); experiment: Z'-LYTE kinase assay, JAK2 tyrosine phosphorylation activity; type: biochemical
# T1 construct: 5 μl of catalytic domain recombinant Kinase enzyme+Tyr peptide substrate (Invitrogen, Calif.); purchased Invitrogen
# In short: (§1)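 Compounds are serially diluted 1:10 in DMSO and tested in duplicate at 1% final DMSO. Each recombinant catalytic domain phosphorylates the Tyr6 FRET peptide with ATP for 1 h at room temperature, then a site-specific protease cleaves unphosphorylated peptide over 1 h before coumarin/fluorescein emission is read.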
# JAK3 = target: T2, JAK3 (Homo sapiens, UniProt P52333); experiment: Z'-LYTE kinase assay, JAK3 tyrosine phosphorylation activity; type: biochemical
# T2 construct: 5 μl of catalytic domain recombinant Kinase enzyme+Tyr peptide substrate (Invitrogen, Calif.); purchased Invitrogen
# In short: as §1
# JAK1 = target: T3, JAK1 (Homo sapiens, UniProt P23458); experiment: Z'-LYTE kinase assay, JAK1 tyrosine phosphorylation activity; type: biochemical; details: read-out: JAK 1 IC50
# T3 construct: 5 μl of catalytic domain recombinant Kinase enzyme+Tyr peptide substrate (Invitrogen, Calif.); purchased Invitrogen
# In short: as §1
# [1] = tested on: IL4-induced phospho STAT6 formation in Ramos B lymphocytes; experiment: Inhibition of IL4-induced phospho STAT6 formation in Ramos B lymphocytes (flow cytometry); type: cell-based, human; details: Homo sapiens; for inhibition at 0.2 µM: 200 nM compound, read-out: % Inhibition of IL-4 Induced STAT6 Phosphorylation 200 nM; for inhibition at 1 µM: 1 μM compound, read-out: % Inhibition of IL-4 Induced STAT6 Phosphorylation 1 μM
# Description: Similar types of assays can be used to assess JAK inhibitory activity and to determine the degree of selectivity of the particular compound as compared to syk. One means of assaying for such inhibition is detection of the effect of the compounds of the present invention on the upregulation of downstream gene products. In the Ramos/IL4 assay, B-cells are stimulated with the cytokine Interleukin-4 (IL-4) leading to the activation of the JAK/Stat pathway through phosphorylation of the JAK family kinases, JAK1 and JAK3, which in turn phosphorylate and activate the transcription factor Stat-6. […] To study the effect of inhibitors (e.g., the 2,4-substituted pyrimindinediamine compounds described herein) on the JAK1 and JAK3, human Ramos B-cells are stimulated with human IL-4. 10′ post-stimulation, cells are subjected to intracellular flow cytometry to measure the extent of STAT-6 phosphorylation. 20 to 24 hours post-stimulation, cells are stained for upregulation of CD23 and analyzed using flow cytometry.
# Inhibition of IL4-induced phospho STAT6 formation was measured by pre-incubating 0.5 million Ramos B lymphocytes (ATCC) with 5 μl compound or DMSO vehicle for 1 hour at 37° C./5% CO2. Cells were activated by addition of 1 ng/ml [f]IL4 (R & D Research Systems) for 10 min at 37° C./5% CO2 and then fixed by addition of 1.6% [f]PFA (Electron Microscopy Services). Following a PBS wash step and permaeabilization with 100% methanol, cells were incubated with ALEXA-conjugated anti-phosphoSTAT6 (Y641) antibody (BD 612600). The extent of cell associated-fluorescence was determined by flow cytomentry and data expressed as mean fluorescent intensity. The extent of inhibition of the IL4-induced signal was then calculated.
# TYK2 = target: T4, TYK2 (Homo sapiens, UniProt P29597); experiment: Z'-LYTE kinase assay, TYK2 tyrosine phosphorylation activity; type: biochemical
# T4 construct: 5 μl of catalytic domain recombinant Kinase enzyme+Tyr peptide substrate (Invitrogen, Calif.); purchased Invitrogen
# T4 sequence (P29597 897-1176 limits assumed): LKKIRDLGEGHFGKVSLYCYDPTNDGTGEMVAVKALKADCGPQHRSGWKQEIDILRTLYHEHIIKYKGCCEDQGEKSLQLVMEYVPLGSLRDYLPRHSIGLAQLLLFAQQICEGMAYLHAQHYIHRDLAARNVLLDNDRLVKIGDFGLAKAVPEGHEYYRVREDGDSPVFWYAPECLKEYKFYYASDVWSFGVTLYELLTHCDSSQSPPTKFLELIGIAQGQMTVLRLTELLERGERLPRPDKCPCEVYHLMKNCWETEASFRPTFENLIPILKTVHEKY
# In short: as §1
# T3 sequence (P23458 875-1153 limits assumed): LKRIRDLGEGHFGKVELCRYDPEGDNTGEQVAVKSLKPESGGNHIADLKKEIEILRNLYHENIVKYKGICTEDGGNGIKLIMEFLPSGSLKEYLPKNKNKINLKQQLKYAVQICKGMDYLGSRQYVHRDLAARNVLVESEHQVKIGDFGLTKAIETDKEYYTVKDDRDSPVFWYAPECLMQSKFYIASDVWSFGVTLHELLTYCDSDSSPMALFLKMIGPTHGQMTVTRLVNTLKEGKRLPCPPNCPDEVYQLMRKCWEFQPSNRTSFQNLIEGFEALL
# T2 sequence (P52333 822-1111 limits assumed): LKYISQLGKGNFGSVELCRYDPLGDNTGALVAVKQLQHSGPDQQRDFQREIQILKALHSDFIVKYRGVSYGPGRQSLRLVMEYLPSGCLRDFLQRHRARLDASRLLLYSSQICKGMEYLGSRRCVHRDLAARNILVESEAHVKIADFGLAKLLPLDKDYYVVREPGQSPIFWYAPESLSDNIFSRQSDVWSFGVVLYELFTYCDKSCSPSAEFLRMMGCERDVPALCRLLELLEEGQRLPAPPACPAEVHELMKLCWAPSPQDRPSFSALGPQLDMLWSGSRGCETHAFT
# T1 sequence (O60674 849-1124 limits assumed): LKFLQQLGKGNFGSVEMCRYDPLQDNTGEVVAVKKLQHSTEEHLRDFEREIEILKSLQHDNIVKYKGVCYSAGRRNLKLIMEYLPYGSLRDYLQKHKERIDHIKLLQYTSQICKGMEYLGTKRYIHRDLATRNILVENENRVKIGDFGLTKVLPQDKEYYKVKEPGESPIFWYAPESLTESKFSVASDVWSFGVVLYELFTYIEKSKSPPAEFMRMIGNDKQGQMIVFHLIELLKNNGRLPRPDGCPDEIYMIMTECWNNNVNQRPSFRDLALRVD
IC50 (JAK2),IC50 (JAK3),IC50 (JAK1),IC50 (TYK2),SMILES,inhibition at 0.2 µM [1],inhibition at 1 µM [1]
10 to 100 nM,1 to 10 nM,10 to 100 nM,1 to 10 nM,"C[C@H]1CCCN1C(=O)Nc1cccc(Nc2ncc(C(N)=O)c(NCc3ccccc3)n2)c1 [Example 139, (S)-4-(benzylamino)-2-(3-(2-methylpyrrolidine-1-carboxamido)phenylamino)pyrimidine-5-carboxamide]",25.3%,74.3%
10 to 100 nM,1 to 10 nM,10 to 100 nM,1 to 10 nM,"NC(=O)c1cnc(Nc2cccc(NC(=O)N3CCCC3)c2)nc1NCc1ccccc1F [Example 168, 4-(2-fluorobenzylamino)-2-(3-(pyrrolidine-1-carboxamido)phenylamino)pyrimidine-5-carboxamide]",54%,92%
10 to 100 nM,1 to 10 nM,10 to 100 nM,1 to 10 nM,"NC(=O)c1cnc(Nc2cccc(NC(=O)N3CC=CC3)c2)nc1NCc1ccccc1 [Example 142, 4-(benzylamino)-2-(3-(2,5-dihydro-1H-pyrrole-1-carboxamido)phenylamino)pyrimidine-5-carboxamide]",41.3%,79.3%
10 to 100 nM,1 to 10 nM,10 to 100 nM,1 to 10 nM,"COc1ccc(Nc2ncc(C(N)=O)c(NCc3ccccc3)n2)cc1NC(=O)N1CCCC1 [Example 163, 4-(benzylamino)-2-(4-methoxy-3-(pyrrolidine-1-carboxamido)phenylamino)pyrimidine-5-carboxamide]",20.7%,61%
10 to 100 nM,< 1 nM,10 to 100 nM,1 to 10 nM,"CN1CCN(C(=O)Nc2cccc(Nc3ncc(C(N)=O)c(NCc4ccccc4)n3)c2)CC1 [Example 216, 4-(benzylamino)-2-(3-(4-methylpiperazine-1-carboxamido)phenylamino)pyrimidine-5-carboxamide]",57.3%,91%
10 to 100 nM,1 to 10 nM,100 to 1000 nM,10 to 100 nM,"COC[C@H]1CCCN1C(=O)Nc1cccc(Nc2ncc(C(N)=O)c(N[C@H](C)c3ccccc3)n2)c1 [Example 149, 2-(3-((R)-2-(methoxymethyl)pyrrolidine-1-carboxamido)phenylamino)-4-((R)-1-phenylethylamino)pyrimidine-5-carboxamide]",6.7%,44%
10 to 100 nM,1 to 10 nM,10 to 100 nM,1 to 10 nM,"CC(=O)Nc1cccc(Nc2ncc(C(N)=O)c(NCc3ccccc3F)n2)c1 [Example 100, 2-(3-acetamidophenylamino)-4-(2-fluorobenzylamino)pyrimidine-5-carboxamide]",43.5%,95.3%
10 to 100 nM,1 to 10 nM,10 to 100 nM,1 to 10 nM,"CN(C)[C@@H]1CCN(C(=O)Nc2cccc(Nc3ncc(C(N)=O)c(NCc4ccccc4)n3)c2)C1 [Example 210, (R)-4-(benzylamino)-2-(3-(3-(dimethylamino)pyrrolidine-1-carboxamido)phenylamino)pyrimidine-5-carboxamide]",48%,81.7%
100 to 1000 nM,10 to 100 nM,100 to 1000 nM,100 to 1000 nM,"CC(=O)Nc1ccc(F)c(Nc2ncc(C(N)=O)c(NCc3ccccc3)n2)c1 [Example 171, 2-(5-acetamido-2-fluorophenylamino)-4-(benzylamino)pyrimidine-5-carboxamide]",7.3%,15.3%

# The next lines start with the molecule.
SMILES,IC50 (JAK2),IC50 (JAK3),IC50 (JAK1),IC50 (TYK2),inhibition at 0.2 µM [1],inhibition at 1 µM [1]
"CNC(=O)Nc1cc(Nc2ncc(C(N)=O)c(NCc3ccccc3)n2)ccc1C [Example 157, 4-(benzylamino)-2-(4-methyl-3-(3-methylureido)phenylamino)pyrimidine-5-carboxamide]",10 to 100 nM,1 to 10 nM,10 to 100 nM,1 to 10 nM,23%,31.7%
"NC(=O)c1cnc(Nc2ccc(Cl)c(NC(=O)N3CCCC3)c2)nc1NCc1cccc(F)c1 [Example 177, 2-(4-chloro-3-(pyrrolidine-1-carboxamido)phenylamino)-4-(3-fluorobenzylamino)pyrimidine-5-carboxamide]",100 to 1000 nM,1 to 10 nM,> 1000 nM,100 to 1000 nM,2.3%,7.3%
"CNC(=O)Nc1cc(Nc2ncc(C(N)=O)c(N[C@H](C)c3ccccc3)n2)ccc1Cl [Example 132, (R)-2-(4-chloro-3-(3-methylureido)phenylamino)-4-(1-phenylethylamino)pyrimidine-5-carboxamide]",100 to 1000 nM,10 to 100 nM,100 to 1000 nM,100 to 1000 nM,7.5%,53.7%
CCNC(=O)Nc1cc(Nc2ncc(C(N)=O)c(NCc3ccccc3)n2)ccc1Cl [Example 153],100 to 1000 nM,10 to 100 nM,100 to 1000 nM,10 to 100 nM,22.3%,51.7%
"CC(C)[C@H](C)Nc1nc(Nc2ccc(Cl)c(NC(=O)N3CCCC3)c2)ncc1C(N)=O [Example 248, (S)-2-(4-chloro-3-(pyrrolidine-1-carboxamido)phenylamino)-4-(3-methylbutan-2-ylamino)pyrimidine-5-carboxamide]",> 1000 nM,10 to 100 nM,10 to 100 nM,10 to 100 nM,61.3%,94.7%
"CC(=O)Nc1cc(Nc2ncc(C(N)=O)c(NCc3ccccc3)n2)ccc1OCCN1CCCC1 [Example 244, 2-(3-acetamido-4-(2-(pyrrolidin-1-yl)ethoxy)phenylamino)-4-(benzylamino)pyrimidine-5-carboxamide]",10 to 100 nM,< 1 nM,10 to 100 nM,1 to 10 nM,51.3%,94.7%
"NC(=O)c1cnc(Nc2ccc(Cl)c(NC(=O)N3CCOCC3)c2)nc1NCc1ccccc1 [Example 182, N-(5-(4-(benzylamino)-5-carbamoylpyrimidin-2-ylamino)-2-chlorophenyl)morpholine-4-carboxamide]",10 to 100 nM,1 to 10 nM,10 to 100 nM,1 to 10 nM,42.3%,89%
"NC(=O)c1cnc(Nc2cccc(NC(=O)[C@@H]3CCCO3)c2)nc1NCc1cccc(F)c1 [Example 208, (S)-4-(3-fluorobenzylamino)-2-(3-(tetrahydrofuran-2-carboxamido)phenylamino)pyrimidine-5-carboxamide]",10 to 100 nM,1 to 10 nM,10 to 100 nM,10 to 100 nM,22.7%,67.7%
"CC(=O)Nc1cccc(Nc2ncc(C(N)=O)c(NCC3CCNCC3)n2)c1 [Example 190, 2-(3-acetamidophenylamino)-4-(piperidin-4-ylmethylamino)pyrimidine-5-carboxamide]",10 to 100 nM,1 to 10 nM,10 to 100 nM,10 to 100 nM,17%,39.3%
"NC(=O)Nc1cc(Nc2ncc(C(N)=O)c(NCc3ccccc3)n2)ccc1Cl [Example 194, 4-(benzylamino)-2-(4-chloro-3-ureidophenylamino)pyrimidine-5-carboxamide]",100 to 1000 nM,1 to 10 nM,100 to 1000 nM,10 to 100 nM,10%,22.7%
